Source: patent publication US20050119344A1, “Medium for radical treatment of tumors, inflammatory processes, fungal infections and other affections of the tissues, diagnostic and prophylactic and method of its implementation” (priority 2001, published 2005)

Key:
benign human skin tumors = conditions: through rub in
Excerpt: (§1) The treatment is provided by rub in the medium with a tampon impregnated with it, directly in the tumor (by the skin ones), or in the accessible surface of the healthy tissue situated near by it. The rub in takes place repeatedly, with waiting for the absorption of the solution, until the tumor is saturated with formic acid in such a degree, that the blood in its blood-vessels coagulates and so that the tumor will be necrotized. […] By the benign tumor the treatment shall include mechanical irritation of its tissue too, with the purpose to stimulate the blood-circulation in it, by which the blood-vessels will be filled out and their surface will be enlarged on the account of the thickness of their walls. Such a treatment can be utilized, if necessary, by the malignant tumors too.

[1] = tested on: pathologically altered tissue; conditions: very weak solutions, in the range of 10%
Excerpt: By broader studies can be composed a table for the painfulness of the reaction by the different groups of tumors and other types of tissue alteration, depending on the solution concentration, the time of influence, for example by rub in and the deepness of the alteration.
The method has been applied for diagnostic of breast cancer.

[2] = tested on: malign formation in the milk gland
Excerpt: as §1
In the concrete case the treatment is applied on the spouse and respectively parent of the inventors. The women is […], with two side fibrose mastopatia. On 19 Nov. 2001 by an echographic examination has been discovered malign formation in the left breast, sector 12h, with the above mentioned dimensions and deepness, (FIG. 1 and FIG. 2). The diagnosis was confirmed through punctual biopsy. The treatment by the above-mentioned method began on 23 Nov. 2001 in the evening. […] The procedures continued three times daily in the following days.

[3] = tested on: inflammatory processes, mushroom formations, and other pathological alterations of the tissues

Which “elimination of benign human skin tumors” value (benign human skin tumors) does the source give for O=CO [formic acid, formic (methane) acid (HCOOH)] here?
The value was “repeatedly implemented for the elimination”.

What about the “reaction when hitting places with pathologically altered tissue” value [1] of the same compound?
Its value is “give pain reaction”.

What about the “state of the tumor tissue” value ([2]; concluded from echography, biopsy and lack of pain by rub in) of the same compound?
The value was “necrotized”.

What about the “echographic size of the flack” value ([2]; echography 11 Dec. 2001 (FIG. 5)) of the same compound?
Its value is “the flack is diminished”.

What about the “outcome of treatment of malign formation in the milk gland” value ([2]; only through rub in, formation 5.7 to 7.4 mm, about 8 mm deep) of the same compound?
The value was “successfully implemented”.

What about the “second punction biopsy, cancer cells” value ([2]; person, rub in three times daily from 23 Nov. 2001, biopsy 01 Dec. 2001) of the same compound?
The value was “have not been observed cancer cells”.

And the “action in inflammatory processes, mushroom formations and other tissue alterations” value ([3]; rub in, pulverizing, inhalations or other supply)?
Its value is “acts very effectively and rapidly”.

What about the “outcome in tooth grenolom” value ([3]; three cases) of the same compound?
The value was “the extraction of the teeth was prevented”.
